Assay results reported in ChEMBL document CHEMBL3046861, “QSAR STUDIES ON ADENOSINE KINASE INHIBITORS” (Med Chem Res, 2004).

The molecules below were run against Adenosine kinase (Homo sapiens) (UniProt P55263).
Sequence of Adenosine kinase (Homo sapiens) (P55263 2-362 limits assumed): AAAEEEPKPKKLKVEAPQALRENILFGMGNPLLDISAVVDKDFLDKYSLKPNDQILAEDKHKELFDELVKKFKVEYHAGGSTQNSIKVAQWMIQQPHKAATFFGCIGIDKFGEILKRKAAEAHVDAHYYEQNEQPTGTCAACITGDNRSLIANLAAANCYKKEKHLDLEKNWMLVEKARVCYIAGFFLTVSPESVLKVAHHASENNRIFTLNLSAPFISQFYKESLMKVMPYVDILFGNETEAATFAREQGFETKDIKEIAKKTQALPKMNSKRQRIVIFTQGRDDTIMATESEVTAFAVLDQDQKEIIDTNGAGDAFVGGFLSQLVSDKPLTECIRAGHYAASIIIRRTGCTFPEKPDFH
Description: Inhibition of adenosine kinase (unknown origin)
`[N-]=[N+]=NC[C@H]1O[C@@H](n2cc(I)c3c(Cl)ncnc32)[C@H](O)[C@@H]1O` gave a logIC50 of -2.05. `[N-]=[N+]=NC[C@H]1O[C@@H](n2cc(Br)c3c(N)ncnc32)[C@H](O)[C@@H]1O` gave a logIC50 of -1.2. `NC[C@H]1O[C@@H](n2cc(Br)c3c(N)ncnc32)[C@H](O)[C@@H]1O` gave a logIC50 of -3.7. `Nc1ncnc2c1c(Cl)cn2[C@@H]1O[C@H](CO)[C@@H](O)[C@H]1O` was tested, and the logIC50 was -0.678. `Cc1cn([C@@H]2O[C@H](C)[C@@H](O)[C@H]2O)c2ncnc(Cl)c12` gave a logIC50 of -0.272. `[N-]=[N+]=NC[C@H]1O[C@@H](n2cc(I)c3c(N)ncnc32)[C@H](O)[C@@H]1O` showed a logIC50 of -1.46. Work on `[N-]=[N+]=NC[C@H]1O[C@@H](n2cc(Br)c3c(Cl)ncnc32)[C@H](O)[C@@H]1O` yielded a logIC50 of -1. Molecule `CSc1cn([C@@H]2O[C@H](C)[C@@H](O)[C@H]2O)c2ncnc(N)c12` has a logIC50 of 0.13. `NC[C@H]1O[C@@H](n2cc(I)c3c(N)ncnc32)[C@H](O)[C@@H]1O` gave a logIC50 of -3.22. Molecule `CSc1cn([C@@H]2O[C@H](C)[C@@H](O)[C@H]2O)c2ncnc(Cl)c12` has a logIC50 of -1.16. In the case of `COC[C@H]1O[C@@H](n2cc(I)c3c(N)ncnc32)[C@H](O)[C@@H]1O`, the logIC50 is reported as 0.0792. `C=C[C@H]1O[C@@H](n2cc(I)c3c(N)ncnc32)[C@H](O)[C@@H]1O` gave a logIC50 of -1. `C[C@H]1O[C@@H](n2cc(C#N)c3c(N)ncnc32)[C@H](O)[C@@H]1O` showed a logIC50 of -0.509. Work on `CNc1ncnc2c1c(I)cn2[C@@H]1O[C@H](C)[C@@H](O)[C@H]1O` yielded a logIC50 of 0.0792. `OC[C@H]1O[C@@H](n2cc(I)c3c(Cl)ncnc32)[C@H](O)[C@@H]1O` was tested, and the logIC50 was -1.62. Work on `CC[C@H]1O[C@@H](n2cc(I)c3c(N)ncnc32)[C@H](O)[C@@H]1O` yielded a logIC50 of -1.22. `NC[C@H]1O[C@@H](n2cc(I)c3c(Cl)ncnc32)[C@H](O)[C@@H]1O` was tested, and the logIC50 was -4. In the case of `CSc1ncnc2c1c(I)cn2[C@@H]1O[C@H](C)[C@@H](O)[C@H]1O`, the logIC50 is reported as -1.35. `Nc1ncnc2c1c(Br)cn2[C@@H]1OC[C@@H](O)[C@H]1O` showed a logIC50 of -0.301. In the case of `C[C@H]1O[C@@H](n2cc(I)c3c(Cl)ncnc32)[C@H](O)[C@@H]1O`, the logIC50 is reported as -2.52. For `Nc1ncnc2c1c(Br)cn2[C@@H]1O[C@H](CO)[C@@H](O)[C@H]1O`, the logIC50 was -0.921. `C[C@H]1O[C@@H](n2cc(Br)c3c(Cl)ncnc32)[C@H](O)[C@@H]1O` was tested, and the logIC50 was -1.3. `C[C@H]1O[C@@H](n2cc(I)c3c(S)ncnc32)[C@H](O)[C@@H]1O` was tested, and the logIC50 was 0.813.
